Laboratory results reported in BindingDB's records for PubMed 7616416 (Third Tokushima Institute of New Drug Research, 1995).
pKi: −log10 of the molar value. Values joined by “and” are separate entries in the source; they are usually repeats but may differ in a detail not shown here. Equal values may be shown once.

Target: D(2) dopamine receptor (Rattus norvegicus, UniProt P61169)
Sequence (P61169 whole entry): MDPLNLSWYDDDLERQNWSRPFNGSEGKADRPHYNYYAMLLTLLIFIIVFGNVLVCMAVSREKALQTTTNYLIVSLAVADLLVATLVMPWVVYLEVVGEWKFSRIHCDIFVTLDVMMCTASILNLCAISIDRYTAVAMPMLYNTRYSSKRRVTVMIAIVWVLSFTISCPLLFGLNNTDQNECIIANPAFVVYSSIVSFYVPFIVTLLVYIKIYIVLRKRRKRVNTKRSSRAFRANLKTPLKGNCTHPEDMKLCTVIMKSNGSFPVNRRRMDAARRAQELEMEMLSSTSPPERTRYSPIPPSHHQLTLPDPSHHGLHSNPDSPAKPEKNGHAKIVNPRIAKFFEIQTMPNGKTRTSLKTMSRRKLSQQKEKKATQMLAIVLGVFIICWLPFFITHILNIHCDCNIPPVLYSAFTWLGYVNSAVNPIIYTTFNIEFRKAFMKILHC

pKi: 7.70 and 7.74 and 8.01
SMILES: Cc1cccc(N2CCN(CCCOc3ccc4ccc(=O)[nH]c4c3)CC2)c1C [NSC_163839]
